Results from patent US12655116B2, “Substituted isophthalic acid diamides” (Bayer Aktiengesellschaft, priority 2020, dated 2026).

What was measured:
[1] = test system: ABUTH; assay: Pre-emergence herbicidal action against ABUTH; assay type: in vivo, Abutilon theophrasti; conditions: Abutilon theophrasti, 504 h; for pest or weed control at 80 g/ha: scored visually after 3 weeks vs untreated controls (100% = plants have died, 0% = like control plants); for pest or weed control at 20 g/ha: dosage 20 g/ha, scored visually after 3 weeks vs untreated controls, 100% = plants have died, 0% = like control plants, read-out: Pre-emergence action against ABUTH (herbicidal activity in percent)
In short: (§1)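 Visual rating at 3 weeks vs untreated pots; 0–100% scale, 100% = plants died. Treatment: aqueous WP/EC spray onto covering soil, 600–800 l/ha, 0.2% wetter, seeds in sandy loam.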

[2] = test system: ALOMY; assay: Pre-emergence herbicidal action against ALOMY; assay type: in vivo, Alopecurus myosuroides; conditions: Alopecurus myosuroides, 504 h, pre-emergence; for pest or weed control at 80 g/ha: scored visually after 3 weeks vs untreated controls (100% = plants have died, 0% = like control plants); for pest or weed control at 20 g/ha: scored visually after 3 weeks, 100% = plants have died, 0% = like control plants
In short: as §1

[3] = test system: AMARE; assay: Pre-emergence herbicidal action against AMARE; assay type: in vivo, Amaranthus retroflexus; conditions: Amaranthus retroflexus, 504 h, scored visually after 3 weeks vs untreated controls, 100% = plants have died, 0% = like control plants
In short: as §1

[4] = test system: AVEFA; assay: Pre-emergence herbicidal action against AVEFA; assay type: in vivo, Avena fatua; conditions: Avena fatua, 504 h, pre-emergence; for pest or weed control at 20 g/ha: scored visually after 3 weeks, 100% = plants have died, 0% = like control plants
In short: as §1

[5] = test system: ECHCG; assay: Pre-emergence herbicidal action against ECHCG; assay type: in vivo, Echinochloa crus-galli; conditions: Echinochloa crus-galli, 504 h
In short: as §1

[6] = test system: HORMU; assay: Pre-emergence herbicidal action against HORMU; assay type: in vivo, Hordeum murinum; conditions: for pest or weed control at 80 g/ha: Hordeum murinum, 504 h, pre-emergence
In short: as §1

[7] = test system: LOLRI; assay: Pre-emergence herbicidal action against LOLRI; assay type: in vivo, Lolium rigidum; conditions: Lolium rigidum, 504 h, 80 g/ha
In short: as §1

[8] = test system: MATIN; assay: Pre-emergence herbicidal action against MATIN; assay type: in vivo, Matricaria inodora; conditions: Tripleurospermum inodorum, 504 h; for pest or weed control at 20 g/ha: dosage 20 g/ha; for pest or weed control at 80 g/ha: dosage 80 g/ha
In short: as §1

[9] = test system: SETVI; assay: Pre-emergence herbicidal action against SETVI; assay type: in vivo, Setaria viridis; conditions: Setaria viridis, 504 h; for pest or weed control at 80 g/ha: dosage 80 g/ha
In short: as §1

[10] = test system: STEME; assay: Pre-emergence herbicidal action against STEME; assay type: in vivo, Stellaria media; conditions: Stellaria media, 504 h; for pest or weed control at 20 g/ha: dosage 20 g/ha; for pest or weed control at 80 g/ha: dosage 80 g/ha
In short: as §1

[11] = test system: VERPE; assay: Pre-emergence herbicidal action against VERPE; assay type: in vivo, Veronica persica; conditions: Veronica persica, 504 h, dosage 80 g/ha
In short: as §1

[12] = test system: VIOTR; assay: Pre-emergence herbicidal action against VIOTR; assay type: in vivo, Viola tricolor; conditions: Viola tricolor, 504 h; for pest or weed control at 20 g/ha: dosage 20 g/ha; for pest or weed control at 80 g/ha: dosage 80 g/ha
In short: as §1

[13] = test system: DIGSA; assay: Pre-emergence herbicidal action against DIGSA; assay type: in vivo, Digitaria sanguinalis; conditions: Digitaria sanguinalis, 504 h; for pest or weed control at 20 g/ha: dosage 20 g/ha; for pest or weed control at 80 g/ha: dosage 80 g/ha
In short: as §1

[14] = test system: ABUTH; assay: Post-emergence herbicidal action against ABUTH; assay type: in vivo, Abutilon theophrasti; conditions: Abutilon theophrasti, 504 h, visual assessment about 3 weeks after treatment vs untreated controls; for pest or weed control at 5 g/ha: dosage 5 g/ha; for pest or weed control at 20 g/ha: dosage 20 g/ha
In short: (§2)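 Greenhouse pot plants in sandy loam were sprayed at the one-leaf stage, 2 to 3 weeks after sowing, with WP or EC formulations as aqueous suspension or emulsion (600 to 800 l/ha water, 0.2% wetting agent). About 3 weeks later, damage was scored visually against untreated controls as % action (100% = dead, 0% = like control).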

[15] = test system: ALOMY; assay: Post-emergence herbicidal action against ALOMY; assay type: in vivo, Alopecurus myosuroides; conditions: Alopecurus myosuroides, 504 h, dosage 20 g/ha, visual assessment about 3 weeks after treatment vs untreated controls
In short: as §2

[16] = test system: AMARE; assay: Post-emergence herbicidal action against AMARE; assay type: in vivo, Amaranthus retroflexus; conditions: Amaranthus retroflexus, 504 h, 20 g/ha, visual assessment about 3 weeks after treatment, 100% = plants have died, 0% = like control plants
In short: as §2

[17] = test system: AVEFA; assay: Post-emergence herbicidal action against AVEFA; assay type: in vivo, Avena fatua; conditions: Avena fatua, 504 h, 20 g/ha, visual assessment about 3 weeks after treatment, 100% = plants have died, 0% = like control plants
In short: as §2

[18] = test system: ECHCG; assay: Post-emergence herbicidal action against ECHCG; assay type: in vivo, Echinochloa crus-galli; conditions: Echinochloa crus-galli, 504 h, dosage 20 g/ha
In short: as §2

[19] = test system: MATIN; assay: Post-emergence herbicidal action against MATIN; assay type: in vivo, Matricaria inodora; conditions: Tripleurospermum inodorum, 504 h; for pest or weed control at 20 g/ha: dosage 20 g/ha
In short: as §2

[20] = test system: POLCO; assay: Post-emergence herbicidal action against POLCO; assay type: in vivo, Polygonum convolvulus; conditions: Fallopia convolvulus, 504 h, dosage 20 g/ha
In short: as §2

[21] = test system: STEME; assay: Post-emergence herbicidal action against STEME; assay type: in vivo, Stellaria media; conditions: Stellaria media, 504 h; for pest or weed control at 5 g/ha: dosage 5 g/ha
In short: as §2

[22] = test system: VIOTR; assay: Post-emergence herbicidal action against VIOTR; assay type: in vivo, Viola tricolor; conditions: Viola tricolor, 504 h
In short: as §2

[23] = test system: DIGSA; assay: Post-emergence herbicidal action against DIGSA; assay type: in vivo, Digitaria sanguinalis; conditions: Digitaria sanguinalis, 504 h
In short: as §2

[24] = test system: PHBPU; assay: Pre-emergence herbicidal action against PHBPU; assay type: in vivo, Pharbitis purpurea; conditions: Ipomoea purpurea, 504 h, dosage 80 g/ha
In short: as §1

[25] = test system: POLCO; assay: Pre-emergence herbicidal action against POLCO; assay type: in vivo, Polygonum convolvulus; conditions: Fallopia convolvulus, 504 h, dosage 80 g/ha
In short: as §1

[26] = test system: PHBPU; assay: Post-emergence herbicidal action against PHBPU; assay type: in vivo, Pharbitis purpurea; conditions: Ipomoea purpurea, 504 h, dosage 20 g/ha
In short: as §2

[27] = test system: SETVI; assay: Post-emergence herbicidal action against SETVI; assay type: in vivo, Setaria viridis; conditions: Setaria viridis, 504 h
In short: as §2

Row | SMILES | pest or weed control at 80 g/ha [1] [%] | pest or weed control at 20 g/ha [1] [%] | pest or weed control at 80 g/ha [2] [%] | pest or weed control at 20 g/ha [2] [%] | pest or weed control at 20 g/ha [3] [%] | pest or weed control at 80 g/ha [3] [%] | pest or weed control at 80 g/ha [4] [%] | pest or weed control at 20 g/ha [4] [%] | pest or weed control at 80 g/ha [5] [%] | pest or weed control at 80 g/ha [6] [%] | pest or weed control at 80 g/ha [7] [%] | pest or weed control at 20 g/ha [8] [%] | pest or weed control at 80 g/ha [8] [%] | pest or weed control at 80 g/ha [9] [%] | pest or weed control at 20 g/ha [10] [%] | pest or weed control at 80 g/ha [10] [%] | pest or weed control at 80 g/ha [11] [%] | pest or weed control at 20 g/ha [12] [%] | pest or weed control at 80 g/ha [12] [%] | pest or weed control at 20 g/ha [13] [%] | other results
1 | CCNC(=O)c1c(C(F)(F)F)ccc(C(=O)Nc2nnnn2CC)c1Cl [Example 2-130] | 100 | 100 | 100 | 90 | 100 | 100 | 100 | 90 | 100 | 100 | 100 | 100 | 100 | 100 | 100 | 100 | 80 | 100 | 100 | 100 | pest or weed control at 20 g/ha ([5]; 20 g/ha): 80%; Pre-emergence action against HORMU ([6]; 20 g/ha, scored visually after 3 weeks, 100% = plants have died, 0% = like control plants): 90%; pest or weed control at 20 g/ha ([9]; dosage 20 g/ha): 90%; pest or weed control at 80 g/ha [13]: 100%; pest or weed control at 5 g/ha [14]: 90%; pest or weed control at 20 g/ha [14]: 90%; pest or weed control at 20 g/ha [15]: 80%; pest or weed control at 20 g/ha [16]: 100%; pest or weed control at 20 g/ha [17]: 90%; pest or weed control at 20 g/ha [18]: 80%; pest or weed control at 20 g/ha [19]: 80%; pest or weed control at 20 g/ha [20]: 80%; pest or weed control at 20 g/ha [21]: 80%; pest or weed control at 5 g/ha [21]: 80%; pest or weed control at 5 g/ha [22]: 90%; pest or weed control at 20 g/ha [22]: 100%; pest or weed control at 5 g/ha [23]: 80%; pest or weed control at 20 g/ha [23]: 80%
2 | CCn1nnnc1NC(=O)c1ccc(C(F)F)c(C(=O)NC2CC2)c1Cl [Example 2-149] | 100 | 100 | 90 | 80 | 100 | 100 | 100 | 80 | 90 | 90 | 90 | 90 | 100 | 100 | 100 | 100 | 80 | 100 | 100 | 90 | pest or weed control at 80 g/ha [24]: 80%; pest or weed control at 80 g/ha [25]: 100%; pest or weed control at 80 g/ha [13]: 100%; pest or weed control at 5 g/ha [14]: 80%; pest or weed control at 20 g/ha [14]: 100%; pest or weed control at 20 g/ha [15]: 80%; pest or weed control at 20 g/ha [16]: 100%; pest or weed control at 20 g/ha [18]: 80%; pest or weed control at 5 g/ha ([19]; dosage 5 g/ha): 90%; pest or weed control at 20 g/ha [19]: 100%; pest or weed control at 20 g/ha [26]: 90%; pest or weed control at 20 g/ha [20]: 80%; pest or weed control at 5 g/ha ([27]; dosage 5 g/ha): 90%; pest or weed control at 20 g/ha ([27]; dosage 20 g/ha): 100%; pest or weed control at 20 g/ha [21]: 90%; pest or weed control at 5 g/ha [21]: 90%; pest or weed control at 5 g/ha [22]: 100%; pest or weed control at 20 g/ha [22]: 100%; pest or weed control at 5 g/ha [23]: 100%; pest or weed control at 20 g/ha [23]: 100%
